Experimental findings from patent publication US20240382564A1, “Methods and Compositions for Treating Muscular Dystrophy and Memory Impairment” (Allysta Pharmaceuticals, Inc., priority 2023, published 2024) are described below.

“Also recorded” adds a separate entry of the source. Where no end group is shown, it is not given here. [ ]: non-standard residue; d: D form. Nva = CCC[C@H](N)C(=O)O

Experiment [1] has as its system D2.mdx mice. Nature of the experiment: Hippocampal high-resolution respirometry. The experiment is classed as in vivo, mouse. To be noted: 15 mg/kg daily; 15 μM ADP. The procedure: Male D2.mdx mice originated from a colony maintained at York University (Toronto, Canada) and sourced from Jackson Laboratories (Stock Number 013141, Bar Harbor, United States). Mice were treated daily from days 7 to 28 of age with ALY688 at 15 mg/kg b.w. (D2.mdx-ALY688) or saline control (D2.mdx-VEH). This age was chosen given it captures an early stage of disease progression in cardiac and skeletal muscle. Mice were sacrificed 20-24 hr after the last dose. Breeding of wildtype mice was unsuccessful. Instead, three-week-old wildtype DBA/2J WT mice (D2A) were obtained from Jackson Laboratories (Stock number 000671, Bar Harbor, United States) and allowed to acclimatize for one week before sacrifice. Mice were housed in standard 12:12-hr light:dark cycles and were allowed access to standard rodent chow and water ad libitum. 4 days prior to sacrifice, all groups underwent novel object recognition acclimatization and testing as described below. Mice were anesthetized under 5% isoflurane vaporized in medical air (21% oxygen) at a flow rate of 2 L/min and then maintained at 2-3% prior to euthanasia by exsanguination. […]
Mitochondrial oxygen consumption (respiration) was measured using the in situ brain permeabilization. […] Polarographic oxygen measurements were acquired in 2 s intervals with the rate of respiration derived from 40 data points and expressed as pmol/s/mg wet weight. […]

Experiment [2] relates to D2.mdx mice. Nature of the experiment: In-situ quadriceps force. It counts as in vivo, mouse. As to the method: D2.mdx mice were treated with ALY688 at two different dosages; high dose (HD; 15 mg/kg body weight/day) or low dose (LD; 3 mg/kg body weight/day) dissolved in saline. A separate group of mice were treated with saline alone (VEH, vehicle). Treatment was provided via subscapular subcutaneous injections from 7 days of age to 28-30 days. […] At 28-30 days of age, mice were anaesthetized with isoflurane vaporized in medical air (21% oxygen) at a 2 L/min flow rate. Due to tissue limitations in limb muscle, certain measures were performed separately in tibialis anterior and quadriceps across several phases of breeding. […]
Body temperature was maintained using an overhead heat lamp. […] Optimal resting length (L0) was determined using single twitches (pulse width=0.2 ms) at varying muscle lengths at the maximal stimulation current. Force was assessed across increasing frequencies (1, 40, 60, 80, 100, 120 Hz) using a biphasic stimulator (Model 710B, Aurora Scientific, Inc., ON, Canada), with one minute rest between each frequency. […] Recovery from fatigue was assessed 5, 10 and 15 minutes after the last contraction of the fatigue protocol at the frequency that elicited max force. Data were analyzed using Dynamic Muscle Control Data Acquisition software (Aurora Scientific, Inc) and normalized to quadriceps weight in mg.

For [dN]IP[Nva]LY[dS]FA[dS]-NH2 [ALY688], the “hippocampal pyruvate-supported respiration stimulated by ADP” value in the experiment with D2.mdx mice [1] is reported as “completely preserved; also recorded: complete restoration”. Besides, the muscle force production entry in the experiment with D2.mdx mice [2] (both doses) is given as “no effect”. In addition, in the experiment with D2.mdx mice [2] (low dose, printed range also covers diaphragm high dose), the “recovery from fatigue, change” value was −5.3% to −50.9.
